The record followed here is patent US20250019373A1, “ARYL OR HETEROARYL DERIVATIVE, AND PHARMACEUTICAL COMPOSITION COMPRISING SAME AS ACTIVE INGREDIENT FOR PREVENTION OR TREATMENT OF KINASE-RELATED DISEASES” (VORONOI INC., priority 2021, published 2025).

The subject of this assay is HT-29 cells. The assay can be described thus: Cell necrosis inhibitory activity under necroptosis-inducing conditions (TNF-α, Z-VAD-FMK, LCL161) in HT-29 cells, Cell Titer-Glo. Type of assay: cell-based. The note with it: Homo sapiens, 100 ng/mL TNF-α + 25 μM Z-VAD-FMK + Smac mimetic LCL161, 24 hours, cell viability. In outline:
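HT-29 cells seeded 24 h, then necroptosis induced with 100 ng/mL TNF-α, 25 μM Z-VAD-FMK and 10 μM LCL161 for 10 min before compound (11 points, 3-fold, top 0.1 or 1 μM; 0.05% DMSO). After 24 h, viability by CellTiter-Glo luminescence relative to untreated controls gave EC50 (nM).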
A general note: Cellular ATP, detected with luciferase, serves as a proxy for viable cell number.

With `Nc1nc2ccc(-c3ccc(Cl)c(NC(=O)N4OCC[C@H]4c4ccccc4)c3F)cn2n1` [Example 105, (S)-N-(3-(2-amino-[1,2,4]triazolo[1,5-a]pyridin-6-yl)-6-chloro-2-fluorophenyl)-3-phenylisoxazolidine-2-carboxamide], the EC50 (commonly the concentration that produces a half-maximal response) stood at 43.8 nM.

Regarding `Cc1ccc(-c2ccc3nnc(C)n3n2)cc1NC(=O)N1OCC[C@H]1c1ccccc1` [Example 107, (S)-N-(2-methyl-5-(3-methyl-[1,2,4]triazolo[4,3-b]pyridazin-6-yl)phenyl)-3-phenylisoxazolidine-2-carboxamide], the EC50 came out at 23.2 nM.

Turning to `Cc1ccc(-c2ccc3nnc(C(F)(F)F)n3n2)cc1NC(=O)N1OCC[C@H]1c1ccccc1` [Example 108, (S)-N-(2-methyl-5-(3-(trifluoromethyl)-[1,2,4]triazolo[4,3-b]pyridazin-6-yl)phenyl)-3-phenylisoxazolidine-2-carboxamide], the EC50 worked out at 29.8 nM.

Turning to `Cc1ccc(-c2ccc3nc(N)oc3c2)cc1NC(=O)N1OCC[C@H]1c1ccccc1` [Example 109, (S)-N-(5-(2-aminobenzo[d]oxazol-6-yl)-2-methylphenyl)-3-phenylisoxazolidine-2-carboxamide], the EC50 stood at 1 nM.

Regarding `Cc1ccc(-c2ccc3nccn3n2)cc1NC(=O)N1OCC[C@H]1c1ccccc1` [Example 112, (S)-N-(5-(imidazo[1,2-b]pyridazin-6-yl)-2-methylphenyl)-3-phenylisoxazolidine-2-carboxamide], the EC50 was 3.3 nM.

Turning to `Cc1ccc(-c2ccc3nccn3c2)cc1NC(=O)N1OCC[C@H]1c1ccccc1` [Example 113, (S)-N-(5-(imidazo[1,2-a]pyridin-6-yl)-2-methylphenyl)-3-phenylisoxazolidine-2-carboxamide], the EC50 amounted to 2.4 nM.

`Cc1ccc(-c2ccc3ncc(C#N)n3c2)cc1NC(=O)N1OCC[C@H]1c1ccccc1` [Example 114, (S)-N-(5-(3-cyanoimidazo[1,2-a]pyridin-6-yl)-2-methylphenyl)-3-phenylisoxazolidine-2-carboxamide]: the EC50 was 1.9 nM.

As for `Cc1ccc(-c2ccc3ncc(C#CC(C)(C)O)n3c2)cc1NC(=O)N1OCC[C@H]1c1ccccc1` [Example 115, (S)-N-(5-(3-(3-hydroxy-3-methylbut-1-yn-1-yl)imidazo[1,2-a]pyridin-6-yl)-2-methylphenyl)-3-phenylisoxazolidine-2-carboxamide], the EC50 is 1.7 nM.

For the compound `C#Cc1cnc2ccc(-c3ccc(C)c(NC(=O)N4OCC[C@H]4c4ccccc4)c3)cn12` [Example 116, (S)-N-(5-(3-ethynylimidazo[1,2-a]pyridin-6-yl)-2-methylphenyl)-3-phenylisoxazolidine-2-carboxamide], the EC50 came out at 1 nM.

`Cc1ccc(-c2ccc3ncc(C#CC(C)(C)O)n3n2)cc1NC(=O)N1OCC[C@H]1c1ccccc1` [Example 117, (S)-N-(5-(3-(3-hydroxy-3-methylbut-1-yn-1-yl)imidazo[1,2-b]pyridazin-6-yl)-2-methylphenyl)-3-phenylisoxazolidine-2-carboxamide]: the EC50 was 2.4 nM.

As for `Cc1ccc(-c2ccc3ncc(C#N)n3n2)cc1NC(=O)N1OCC[C@H]1c1ccccc1` [Example 118, (S)-N-(5-(3-cyanoimidazo[1,2-b]pyridazin-6-yl)-2-methylphenyl)-3-phenylisoxazolidine-2-carboxamide], the EC50 came to 4.3 nM.

With `Cc1ncc(-c2ccc3c(N)ncnn23)cc1NC(=O)N1OCC[C@H]1c1ccccc1` [Example 120, (S)-N-(5-(4-aminopyrrolo[2,1-f][1,2,4]triazin-7-yl)-2-methylpyridin-3-yl)-3-phenylisoxazolidine-2-carboxamide], the EC50 was 1 nM.

Regarding `Cc1ncc(-c2csc3c(N)ncnc23)cc1NC(=O)N1OCC[C@H]1c1ccccc1` [Example 121, (S)-N-(5-(4-aminothieno[3,2-d]pyrimidine-7-y1)-2-methylpyridin-3-yl)-3-phenylisoxazolidine-2-carboxamide], the EC50 was determined as 11.7 nM.

For `Cc1ccc(-c2csc3c(N)ncnc23)cc1NC(=O)N1OCC[C@H]1c1ccccc1` [Example 122, (S)-N-(5-(4-aminothieno[3,2-d]pyrimidine-7-yl)-2-methylphenyl)-3-phenylisoxazolidine-2-carboxamide], the concentration for a half-maximal effect (EC50) was found to be 20.4 nM.

With `Nc1nc2cc(-c3ccc(F)c(NC(=O)N4OCC[C@H]4c4ccccc4)c3)ccn2n1` [Example 123, (S)-N-(5-(2-amino-[1,2,4]triazolo[1,5-a]pyridin-7-yl)-2-fluorophenyl)-3-phenylisoxazolidine-2-carboxamide], the EC50 was 0.3 nM.

For the compound `Nc1nc2cc(-c3ccc(Cl)c(NC(=O)N4OCC[C@H]4c4ccccc4)c3)ccn2n1` [Example 124, (S)-N-(5-(2-amino-[1,2,4]triazolo[1,5-a]pyridin-7-yl)-2-chlorophenyl)-3-phenylisoxazolidine-2-carboxamide], the EC50 stood at 0.2 nM.

`C#Cc1cnc2ccc(-c3ccc(C)c(NC(=O)N4OCC[C@H]4c4ccccc4)c3)nn12` [Example 125, (S)-N-(5-(3-ethynylimidazo[1,2-b]pyridazin-6-yl)-2-methylphenyl)-3-phenylisoxazolidine-2-carboxamide]: the EC50 was 1.4 nM.

Take `Cc1ccc(-c2ccn3nc(N)cc3c2)cc1NC(=O)N1OCC[C@H]1c1ccccc1` [Example 126, (S)-N-(5-(2-aminopyrazolo[1,5-a]pyridin-5-yl)-2-methylphenyl)-3-phenylisoxazolidine-2-carboxamide]: the EC50 amounted to 0.4 nM.

On to `COc1ncc(-c2csc3c(N)ncnc23)cc1NC(=O)N1OCC[C@H]1c1ccccc1` [Example 128, (S)-N-(5-(4-aminothieno[3,2-d]pyrimidine-7-yl)-2-methoxypyridin-3-yl)-3-phenylisoxazolidine-2-carboxamide], for which the EC50 was found to be 38.2 nM.

Take `COc1ncc(-c2cc(C(F)(F)F)c3c(N)ncnn23)cc1NC(=O)N1OCC[C@H]1c1ccccc1` [Example 129, (S)-N-(5-(4-amino-5-(trifluoromethyl)pyrrolo[2,1-f][1,2,4]triazin-7-yl)-2-methoxypyridin-3-yl)-3-phenylisoxazolidine-2-carboxamide]: the EC50 worked out at 3.6 nM.

For `Cc1ccc(-c2cc3scnc3cn2)cc1NC(=O)N1OCC[C@H]1c1ccccc1` [Example 130, (S)-N-(2-methyl-5-(thiazolo[4,5-c]pyridin-6-yl)phenyl)-3-phenylisoxazolidine-2-carboxamide], the EC50 was 1.4 nM.

As for `Cc1ccc(-c2ccc3ncsc3n2)cc1NC(=O)N1OCC[C@H]1c1ccccc1` [Example 131, (S)-N-(2-methyl-5-(thiazolo[5,4-b]pyridin-5-yl)phenyl)-3-phenylisoxazolidine-2-carboxamide], the EC50 was 4 nM.

Regarding `Nc1nc2ccc(-c3ccc(F)c(NC(=O)N4OCC[C@H]4c4ccccc4)c3F)cc2s1` [Example 132, (S)-N-(3-(2-aminobenzo[d]thiazol-6-yl)-2,6-difluorophenyl)-3-phenylisoxazolidine-2-carboxamide], the 50% effective concentration (EC50) is 8.1 nM.

As to `Cc1ccc(-c2cc3c(cn2)ncn3C)cc1NC(=O)N1OCC[C@H]1c1ccccc1` [Example 133, (S)-N-(2-methyl-5-(1-methyl-1H-imidazo[4,5-c]pyridin-6-yl)phenyl)-3-phenylisoxazolidine-2-carboxamide], the concentration for a half-maximal effect (EC50) came out at 6.5 nM.
